# Measured values as given in ChEMBL document CHEMBL1136446, “Synthesis and antiproliferative activity of retroetoposide” (Bioorg Med Chem Lett, 2003).
# pIC50: −log10 of the molar value.
# Tested on: L1210
# Experiment: Inhibitory activity against L1210 cell line
# Assay type: functional, cell-based
# Details: Mus musculus
row,pIC50,SMILES
1,5.17,COc1cc([C@@H]2c3cc4c(cc3[C@@H](O[C@@H]3O[C@H]5CO[C@@H](C)O[C@H]5[C@H](O)[C@@H]3O)[C@H]3C(=O)OC[C@H]23)OCO4)cc(OC)c1O
2,4.56,COc1cc([C@@H]2c3cc4c(cc3[C@@H](O)C3C(=O)OCC32)OCO4)cc(OC)c1O (stereo partly drawn)

row,SMILES,pIC50
1,COc1cc([C@@H]2c3cc4c(cc3[C@@H](O[C@@H]3O[C@@H]5CO[C@@H](C)O[C@H]5[C@H](O)[C@H]3O)[C@H]3COC(=O)[C@H]23)OCO4)cc(OC)c1O [ETOPOSIDE],6.08
